Data set [1] has as its target T1, WRN D1D2RH (Asn517–Pro1238) (Homo sapiens, UniProt Q14191).
T1 construct: 10 nM WRN D1D2RH (protein construct (Asn517–Pro1238)); His tag (N, cleaved yes); ZZ tag (N, cleaved yes); made in house; host or cells: Sf21 insect cells (baculovirus)
The data set is described as follows: Cy5-ATPγS binding assay using TR-FRET (ATP binding). As for the experimental part: A ratio of F665 over F620 was then calculated to determine the FRET efficiency in each well. This assay protocol was used during hit optimization to build the initial structure–activity relationship and was also adapted to 1,536-well plates for screening purposes.

The target of data set [2] is T1, WRN D1D2RH (Asn517–Pro1238). Description: ATPase activity analysis, ADP-Glo. The format is biochemical. How it is done: (§1) We used an ADP-Glo assay kit (Promega) to monitor ATP hydrolysis. A 45-oligonucleotide with the following sequence: […], referred to as FLAP26, as described previously[45] was purchased from IDT (Integrated DNA Technologies) and used as a DNA substrate. […] The reaction was started by addition of 2.5 μl of ssDNA substrate at 0.4 nM and incubated for 30 min at room temperature. The reaction was stopped with the addition of 5 μl of the first ADP-Glo reagent and incubated for 1 h to remove the excess amount of ATP. Then, 10 μl of ATP detection reagent was added and incubated for an additional hour before reading. The luminescence output was recorded using the Pherastar reader, with a 5 min delay before reading. Each concentration of compounds was tested in duplicates in the assay plate. The compound potency (IC50 value) was determined using custom software (Novartis Helios software application) with a four-parameter sigmoid Hill-curve model. After normalization of activity values for the wells to percentage inhibition (percentage inhibition = [(high control activity − sample activity)/(high control activity − low control activity)] × 100), IC50 fitting was performed from the duplicate determinations present on each plate.

A further data set addresses T2, WRN D1D2 C727S (Homo sapiens, UniProt Q14191, C727S).
T2 construct: the minimal D1–D2 helicase core (WRN 517–945)
The data set is described as follows: ATPase assay. Conditions: read-out: Biochemical IC50 ATPase WRN D1D2 C727S. As for the experimental part:
as §1

The next data set addresses T3, WRN D1D2 C727A (Homo sapiens, UniProt Q14191, C727A).
T3 construct: the minimal D1–D2 helicase core (WRN 517–945)
Description: ATPase assay. To be noted: read-out: Biochemical IC50 ATPase WRN D1D2 C727A. How it is done:
as §1

Data set [3] addresses T4, WRN D1D2 WT (WRN 517–945) (Homo sapiens, UniProt Q14191).
T4 construct: the minimal D1–D2 helicase core (WRN 517–945)
The data set is described as follows: ATPase assay. Conditions: read-out: Biochemical IC50 ATPase WRN D1D2 WT. How it is done: as §1

Another data set has as its target T5, WRN full length (Homo sapiens, UniProt Q14191).
T5 construct: ATPase WRN full length: 0.02; made in house
Description: ATPase assay. Conditions: read-out: Biochemical IC50 ATPase WRN full length. How it is done:
as §1

Another data set has as its target T6, WRN (D1D2RH) (Homo sapiens, UniProt Q14191).
T6 construct: N-terminal Avi Tag-WRN(Asn517–Pro1238)
The data set is described as follows: Radioactive binding assay using an SPA (saturation binding). Conditions: 10 nM WRN. How it is done: A total of 20 μl N-terminal Avi tag-WRN protein (Asn517-Pro1238) in 30 mM Tris pH 7.5, 30 mM NaCl, […], 0.02% BSA, 0.1% Pluronic F127, containing or not a fivefold higher concentration of dsDNA as compared to protein concentration, were incubated with 20 μl [^3H]-probe 6 (Extended Data Fig. 2f) for 1 h at room temperature. Then, 10 μl Streptavidin-coated PVT scintillation proximity assay (SPA) beads (Perkin Elmer, RPNQ0009) were added and the plate was read after 30 min in a TopCount luminescence reader (1 min, delay,1 min per well). The final assay concentrations were 10 nM WRN, 50 nM dsDNA (for the condition with dsDNA), a concentration range of radioligand as shown in the graphs and 50 μg per well of PVT SPA beads. The dsDNA was the same substrate as used in the DNA-unwinding assay (without labels).

Data set [4] has as its system WRN protein in MSI and MSS cells. The data set is described as follows: WRN degradation (immunoblot, ELISA). Format: cell-based, human. How it is done:
A list of all of the antibodies is provided in Supplementary Table 2. […] The plates were washed in PBS and 200 µl per well of blocking reagent added (PBS, 0.05% Tween-20, 5% skimmed milk), and the plates were incubated for a minimum of 2 h at room temperature. […] The plates were then washed and 50 µl of secondary antibody per well diluted in blocking buffer was added and the plates were incubated overnight at 4 °C. The next day, 50 µl of tertiary antibody was added per well buffer and the plates were incubated for 2 h at room temperature. […] The plates were shaken and luminescence was detected immediately on the Synergy HT microplate reader.

The subject of another data set is SW48 xenografts. The data set is described as follows: SW48 xenograft efficacy, HRO761, irinotecan and combination. The format is in vivo, mouse. To be noted: Irinotecan 60mg/kg. How it is done: All animal studies were conducted in accordance with ethics and procedures covered by permit BS-2275 and BS-1975 issued by the Kantonales Veterinäramt Basel-Stadt and in strict adherence to guidelines of the Eidgenössisches Tierschutzgesetz and the Eidgenössische Tierschutzverordnung, Switzerland. All animal studies were approved by the internal ethics committee. All animals had access to food and water ad libitum and were identified with transponders. They were housed in a specific-pathogen-free facility in IVC racks under a 12 h–12 h light–dark cycle. To establish cell-line-derived xenograft models, 6–7-week-old female athymic nude (Crl:NU(NCr)-Foxn1^nu) or SCID-BEIGE (CB17.Cg-PrkdcscidLystbg-J/Crl) mice from Charles River were engrafted subcutaneously with 5 million tumour cells in HBSS (H6648, Sigma-Aldrich). For SNU-407, Lovo, IM95, RL95.2, Ishikawa and IGROV-1, the cells were concentrated in 50% Matrigel (354234, Corning). Patient-derived xenografts were induced and expanded by transplantation as previously described. […] For the efficacy experiment, mice were randomized into groups (n = 5–6) for a mean tumour size of 100–150 mm^3. […] Blood samples were collected on day 7 and 91. […] Tumour responses are reported with the measures of tumour volumes from the treatment start. […] Animals were randomized (n = 3) and tumour samples were collected at 0, 1, 4, 8 and 24 h on the first day and then collected 4 h after the last treatment on day 3, 8, 10, 14 (including a 24 h timepoint), 17 and 21. Tumours were excised, weighed, either frozen in liquid nitrogen and cryogenic dry pulverized with the CryoPrep system (model CP-02, Covaris) or processed to FFPE after fixation. […] On day 12, blood samples were collected for PK analysis. On the last day (3 h after the last treatment), tumours were excised, weighed, frozen in liquid nitrogen and cryogenic dry pulverized for PD analysis.

A further data set is described as follows: logD / logP. Format: physicochemical. To be noted: 1-octanol/water, pH 7.4, 1-octanol and water at pH 7.4.
Another data set is described as follows: Rat PK. Format: in vivo. How it is done: PK parameters were determined by non-compartmental analysis. Intravenous bolus studies in mouse, rat and dog were performed at 1, 1 and 0.1 mg per kg respectively (Extended Data Table 1).
Another data set in a line: MDCK LE permeability. Format: in vitro ADME, canine. Conditions: dog, Fig. 1b.
The target in a further data set is T7, RecQ1 (Homo sapiens, UniProt P46063).
T7 construct: human RecQ1-D1D2 (UniProt: P46063, Asp62–Ser482); His tag (N); made in house; host or cells: E. coli BL21(DE3), by the 'analogous procedure'
T7 sequence (P46063 62-482): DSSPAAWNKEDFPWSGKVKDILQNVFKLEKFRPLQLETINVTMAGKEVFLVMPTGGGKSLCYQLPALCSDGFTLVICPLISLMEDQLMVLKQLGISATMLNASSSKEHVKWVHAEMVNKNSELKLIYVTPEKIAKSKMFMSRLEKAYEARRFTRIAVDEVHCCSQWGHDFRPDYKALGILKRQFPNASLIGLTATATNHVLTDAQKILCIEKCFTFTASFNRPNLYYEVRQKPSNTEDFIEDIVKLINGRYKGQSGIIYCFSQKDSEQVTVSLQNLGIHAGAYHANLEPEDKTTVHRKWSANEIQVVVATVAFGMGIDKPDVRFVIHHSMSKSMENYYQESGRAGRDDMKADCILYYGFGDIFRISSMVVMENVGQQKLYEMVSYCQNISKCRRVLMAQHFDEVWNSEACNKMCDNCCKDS
The data set is described as follows: RecQ selectivity ATPase assay. The format is biochemical. As for the experimental part: (§2) DNA sequence allowing expression of human BLM-D1D2RH (UniProt P54132: Lys640–Gly1298) fused at the amino-terminal end to His tag followed by TEV-cleavage site, was inserted into a pET-derived vector. Protein expression was performed in BL21(DE3) cells after IPTG induction. Cells were collected and resuspended in lysis buffer (50 mM NaH2PO4, 300 mM NaCl, 1 mM TCEP, 20 mM imidazole, pH 8.0) supplemented with 2 mM MgCl2, benzonase and 0.5 mM AEBSF. Cells were lysed with an Emulsiflex C3 homogenizer. After ultracentrifugation, the lysate was loaded onto a HisTrap HP column. Bound protein was eluted with an imidazole gradient in lysis buffer. The amino-terminal tag was cleaved with TEV protease. Cleaved protein was loaded on Resource S ion-exchange column and eluted with a NaCl gradient in IEX buffer (20 mM Tris, 1 mM TCEP, 10% glycerol, 20 mM NaCl, pH 7.4). As a final step, BLM-D1D2RH protein was concentrated and loaded onto the Superdex 75 gel-filtration column pre-equilibrated with SEC buffer (50 mM Tris, 150 mM NaCl, 10% glycerol, pH 7.4). Eluted target protein was concentrated and frozen on dry ice. An analogous procedure was used for the expression and purification of human RecQ1-D1D2 (UniProt: P46063, Asp62–Ser482) and Human RecQ5-D1D2 (UniProt: O94762, Asp11–Trp453) proteins.
as §1
(§3) The same ATPase assay protocol was used with the three other RecQ protein constructs to assess the selectivity over WRN. Time-course experiments were performed to determine the best enzymatic assay conditions for each RecQ protein. The experiments were run as described above with 10 nM RecQ1 protein construct with 10 nM ssDNA substrate, 2 nM BLM protein construct with 0.2 nM ssDNA substrate and 0.5 nM RecQ5 protein construct with 2 nM ssDNA substrate, respectively.

In the next data set the target is T8, RecQ5 (Homo sapiens, UniProt O94762).
T8 construct: Human RecQ5-D1D2 (UniProt: O94762, Asp11–Trp453); His tag (N); made in house; host or cells: E. coli BL21(DE3), by the 'analogous procedure'
T8 sequence (O94762 11-453): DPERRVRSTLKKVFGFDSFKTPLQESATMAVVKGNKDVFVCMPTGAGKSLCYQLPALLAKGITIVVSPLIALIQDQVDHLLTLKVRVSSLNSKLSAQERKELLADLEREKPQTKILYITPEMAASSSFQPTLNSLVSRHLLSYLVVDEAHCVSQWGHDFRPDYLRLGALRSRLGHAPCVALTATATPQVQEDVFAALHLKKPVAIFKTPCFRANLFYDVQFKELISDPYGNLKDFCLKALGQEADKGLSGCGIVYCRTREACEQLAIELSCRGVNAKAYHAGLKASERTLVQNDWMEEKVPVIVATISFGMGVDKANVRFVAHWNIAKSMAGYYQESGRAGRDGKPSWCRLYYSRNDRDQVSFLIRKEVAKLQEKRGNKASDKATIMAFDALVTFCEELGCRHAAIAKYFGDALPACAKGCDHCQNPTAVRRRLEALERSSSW
The data set is described as follows: RecQ selectivity ATPase assay. Format: biochemical. How it is done:
as §2, §1, §3

The mark [5] stands for this setting: author rebuttal, compound numbers of an earlier manuscript version, read-out: Cy5-ATPγS binding assay in TR-FRET - IC50.

Each structure is given as a SMILES string. pIC50, pKd: −log10 of the molar value.

T1 sequence (Q14191 517-1238): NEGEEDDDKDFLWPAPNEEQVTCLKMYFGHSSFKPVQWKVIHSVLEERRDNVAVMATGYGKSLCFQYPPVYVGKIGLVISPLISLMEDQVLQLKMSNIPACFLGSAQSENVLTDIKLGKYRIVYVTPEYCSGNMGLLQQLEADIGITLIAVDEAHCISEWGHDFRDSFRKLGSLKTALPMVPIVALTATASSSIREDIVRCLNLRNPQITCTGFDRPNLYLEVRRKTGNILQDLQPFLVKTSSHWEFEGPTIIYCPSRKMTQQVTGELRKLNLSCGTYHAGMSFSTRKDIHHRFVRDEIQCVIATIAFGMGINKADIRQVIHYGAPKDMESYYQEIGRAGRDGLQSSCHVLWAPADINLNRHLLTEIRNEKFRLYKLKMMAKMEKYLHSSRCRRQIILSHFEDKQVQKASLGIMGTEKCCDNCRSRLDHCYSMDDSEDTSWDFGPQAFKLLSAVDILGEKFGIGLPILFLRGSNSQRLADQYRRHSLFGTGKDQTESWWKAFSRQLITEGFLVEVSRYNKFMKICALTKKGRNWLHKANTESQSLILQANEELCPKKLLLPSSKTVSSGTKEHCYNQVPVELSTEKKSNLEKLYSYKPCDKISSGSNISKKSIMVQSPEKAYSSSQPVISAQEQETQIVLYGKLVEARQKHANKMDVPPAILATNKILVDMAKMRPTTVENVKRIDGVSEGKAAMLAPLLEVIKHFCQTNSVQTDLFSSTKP
T6 sequence (Q14191 517-1238): as above
T2 sequence (Q14191 517-945 C727S): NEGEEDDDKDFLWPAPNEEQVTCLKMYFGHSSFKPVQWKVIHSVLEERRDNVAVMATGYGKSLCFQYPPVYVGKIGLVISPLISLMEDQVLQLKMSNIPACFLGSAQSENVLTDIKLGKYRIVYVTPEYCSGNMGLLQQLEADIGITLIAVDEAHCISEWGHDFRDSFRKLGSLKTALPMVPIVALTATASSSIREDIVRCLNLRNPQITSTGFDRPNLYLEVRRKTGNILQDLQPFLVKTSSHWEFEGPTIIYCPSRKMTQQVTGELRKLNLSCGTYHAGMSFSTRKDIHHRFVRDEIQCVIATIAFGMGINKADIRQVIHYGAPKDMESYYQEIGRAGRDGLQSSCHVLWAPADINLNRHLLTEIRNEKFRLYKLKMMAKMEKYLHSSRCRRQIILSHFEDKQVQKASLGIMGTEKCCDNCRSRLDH
T5 sequence (Q14191 whole entry): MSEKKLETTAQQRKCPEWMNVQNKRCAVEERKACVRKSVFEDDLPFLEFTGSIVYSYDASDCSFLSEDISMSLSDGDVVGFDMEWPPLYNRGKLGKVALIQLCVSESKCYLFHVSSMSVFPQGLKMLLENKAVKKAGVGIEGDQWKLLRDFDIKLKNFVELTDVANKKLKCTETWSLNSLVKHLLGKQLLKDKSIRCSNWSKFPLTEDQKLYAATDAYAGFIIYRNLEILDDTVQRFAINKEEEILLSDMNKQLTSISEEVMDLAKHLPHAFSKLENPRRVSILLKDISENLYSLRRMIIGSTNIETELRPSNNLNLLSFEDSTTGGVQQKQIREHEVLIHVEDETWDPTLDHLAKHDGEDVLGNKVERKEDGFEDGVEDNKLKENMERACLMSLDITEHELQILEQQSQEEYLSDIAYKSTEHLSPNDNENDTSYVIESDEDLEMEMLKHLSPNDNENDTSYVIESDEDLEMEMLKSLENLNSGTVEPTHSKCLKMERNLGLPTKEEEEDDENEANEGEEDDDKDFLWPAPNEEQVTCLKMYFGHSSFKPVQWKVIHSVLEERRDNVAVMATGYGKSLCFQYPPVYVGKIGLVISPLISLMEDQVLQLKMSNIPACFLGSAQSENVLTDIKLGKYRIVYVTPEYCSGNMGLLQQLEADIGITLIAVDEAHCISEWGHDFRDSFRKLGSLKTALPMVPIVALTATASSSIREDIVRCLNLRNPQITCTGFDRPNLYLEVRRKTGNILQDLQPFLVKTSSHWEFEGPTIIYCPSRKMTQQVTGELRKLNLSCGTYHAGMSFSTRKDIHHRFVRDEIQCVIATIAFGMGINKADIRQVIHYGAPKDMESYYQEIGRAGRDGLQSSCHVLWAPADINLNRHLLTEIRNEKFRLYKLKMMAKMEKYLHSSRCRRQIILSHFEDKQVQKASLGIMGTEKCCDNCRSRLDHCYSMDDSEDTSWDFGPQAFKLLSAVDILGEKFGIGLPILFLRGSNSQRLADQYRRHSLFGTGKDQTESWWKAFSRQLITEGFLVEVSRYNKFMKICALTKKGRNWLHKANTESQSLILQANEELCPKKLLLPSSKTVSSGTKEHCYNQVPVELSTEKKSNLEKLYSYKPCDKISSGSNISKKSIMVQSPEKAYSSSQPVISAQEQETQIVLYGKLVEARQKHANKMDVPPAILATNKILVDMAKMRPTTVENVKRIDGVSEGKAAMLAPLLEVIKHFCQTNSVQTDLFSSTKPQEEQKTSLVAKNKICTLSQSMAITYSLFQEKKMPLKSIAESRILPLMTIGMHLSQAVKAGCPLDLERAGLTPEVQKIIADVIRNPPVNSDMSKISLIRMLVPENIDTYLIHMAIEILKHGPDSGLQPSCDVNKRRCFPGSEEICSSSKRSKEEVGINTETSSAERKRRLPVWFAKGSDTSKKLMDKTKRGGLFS
T4 sequence (Q14191 517-945): as the sequence (Q14191 517-945 C727S) above, with S211C counted along it
T3 sequence (Q14191 517-945 C727A): as the sequence (Q14191 517-945 C727S) above, with S211A counted along it

Consider `CC(=O)N1CCN(c2c(C)n(CC(=O)Nc3ccc(Cl)cc3)c3nc(N4CCN(C(=O)OC(C)(C)C)CC4)nn3c2=O)CC1` [compound 5], for which the pIC50 in data set [1] (setting [5]) is 7.89; in [2] (Extended Data Fig. 2b, read-out: Biochemical IC50 ATPase WRN D1D2RH) it was 6.57; at WRN D1D2 C727S, 4.60; at WRN D1D2 C727A it was 5.96; in [3], 6.60; at WRN full length, 6.96. Further, in data set [2] (KDNA determination, 0.5 nM WRN D1D2RH, 100 µM ATP), the “mode of action with regard to DNA” value was “non-competitive mode of action”.

On to `[3H]c1cc(C(F)(F)F)cc([3H])c1NC(=O)Cn1c(C)c(N2CCN(C(C)=O)CC2)c(=O)n2nc(N3CCN(C(C)=O)CC3)nc12` [compound 6], for which the pKd is 8.00 at WRN (D1D2RH) (in absence of dsDNA) and 7.85 on WRN (D1D2RH) (in presence of 50 nM dsDNA).

As for `CC[C@@]1(O)C(=O)OCc2c1cc1n(c2=O)Cc2cc3ccccc3nc2-1` [camptothecin, reference compound], the “WRN degradation, dependence on MSI/MSS status” value in [4] is listed as “irrespective of their MSI/MSS status”.

Turning to `CCc1c2c(nc3ccc(OC(=O)N4CCC(N5CCCCC5)CC4)cc13)-c1cc3c(c(=O)n1C2)COC(=O)[C@]3(O)CC` [irinotecan, reference compound], the “Mean TVol (mm3)” value in the data set on SW48 xenografts (day 0 post 1st dose) is listed as 254.88 mm3; in the data set with SW48 xenografts (day 4 post 1st dose), 329.29 mm3; with SW48 xenografts (day 7 post 1st dose), 550.55 mm3; with SW48 xenografts (day 11 post 1st dose), 635.45 mm3; with SW48 xenografts (day 14 post 1st dose) it was 640.95 mm3; in the data set with SW48 xenografts (day 18 post 1st dose), 669.98 mm3. Besides, the “Mean TVol (mm3)” value in the data set on SW48 xenografts (day 21 post 1st dose) was found to be 833.51 mm3.

Regarding `Cc1c(N2CCN(C(=O)c3c(F)ccc(F)c3O)CC2)c(=O)n2nc(C3=CCOCC3)nc2n1CC(=O)Nc1ccc(C(F)(F)F)cc1` [compound 2], the pIC50 is 8.05 in data set [1] (setting [5]), under 4.00 against RecQ1 and under 4.00 on RecQ5. Also, the logD in “logD / logP” is 3.7. The “Rat PK, oral bioavailability (F)” value in the data set “Rat PK” is 0 % F. The same compound yielded a Papp in “MDCK LE permeability” of 0.2 ×10⁻⁶ cm/s.

Regarding `Cc1cccc(NC(=O)Cn2c(C)cc(=O)n3nc(-c4cccs4)nc23)c1C` [compound 1], the pIC50 in data set [1] (WRN D1D2RH, Fig. 1b, Extended Data Fig. 2b, read-out: ATP binding IC50) is 5.52; in data set [1] (setting [5]), 5.48; in data set [2] (Fig. 1b, ATP concentration not given, read-out: ATPase IC50), 4.66.

The record behind these values is publication PMC11078746 (Nature, 2024).
